Laboratory results published in ChEMBL document CHEMBL1938312, “Design and combinatorial synthesis of a novel kinase-focused library using click chemistry-based fragment assembly” (Bioorg Med Chem Lett, 2012).

Key:
[1] = molecular target: T1, Receptor-type tyrosine-protein kinase FLT3 (Homo sapiens, UniProt P36888); assay: Inhibition of FLT3 by colorimetric analysis
T1 sequence (P36888 whole entry): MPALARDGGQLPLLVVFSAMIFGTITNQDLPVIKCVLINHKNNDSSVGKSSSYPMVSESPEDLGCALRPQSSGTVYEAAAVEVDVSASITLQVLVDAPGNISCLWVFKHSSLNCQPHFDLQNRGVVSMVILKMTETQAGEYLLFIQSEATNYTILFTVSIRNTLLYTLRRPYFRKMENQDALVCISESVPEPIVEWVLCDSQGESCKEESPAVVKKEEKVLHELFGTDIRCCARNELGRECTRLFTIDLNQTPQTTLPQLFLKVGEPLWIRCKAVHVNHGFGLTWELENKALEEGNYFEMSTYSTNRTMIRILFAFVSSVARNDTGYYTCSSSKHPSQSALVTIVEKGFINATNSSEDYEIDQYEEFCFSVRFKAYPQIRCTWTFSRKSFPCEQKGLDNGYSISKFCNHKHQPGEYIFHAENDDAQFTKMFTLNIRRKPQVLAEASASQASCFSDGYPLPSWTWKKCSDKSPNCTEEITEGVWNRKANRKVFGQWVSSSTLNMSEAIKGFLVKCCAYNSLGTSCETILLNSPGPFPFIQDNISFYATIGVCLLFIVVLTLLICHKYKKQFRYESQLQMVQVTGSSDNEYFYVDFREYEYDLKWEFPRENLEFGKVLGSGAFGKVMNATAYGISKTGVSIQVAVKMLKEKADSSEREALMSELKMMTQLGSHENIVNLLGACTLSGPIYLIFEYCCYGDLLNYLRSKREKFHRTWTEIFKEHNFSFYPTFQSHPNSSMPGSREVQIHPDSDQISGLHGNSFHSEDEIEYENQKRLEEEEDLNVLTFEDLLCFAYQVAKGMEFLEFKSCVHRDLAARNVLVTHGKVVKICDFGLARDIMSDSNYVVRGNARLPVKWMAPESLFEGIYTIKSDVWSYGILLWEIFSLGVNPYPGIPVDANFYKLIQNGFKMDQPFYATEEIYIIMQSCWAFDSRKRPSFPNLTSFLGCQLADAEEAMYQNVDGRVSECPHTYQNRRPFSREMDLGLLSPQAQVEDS

[2] = molecular target: Glycogen synthase kinase-3 beta (Homo sapiens, UniProt P49841); assay: Inhibition of GSK3-beta by colorimetric analysis
Sequence of Glycogen synthase kinase-3 beta (P49841 whole entry): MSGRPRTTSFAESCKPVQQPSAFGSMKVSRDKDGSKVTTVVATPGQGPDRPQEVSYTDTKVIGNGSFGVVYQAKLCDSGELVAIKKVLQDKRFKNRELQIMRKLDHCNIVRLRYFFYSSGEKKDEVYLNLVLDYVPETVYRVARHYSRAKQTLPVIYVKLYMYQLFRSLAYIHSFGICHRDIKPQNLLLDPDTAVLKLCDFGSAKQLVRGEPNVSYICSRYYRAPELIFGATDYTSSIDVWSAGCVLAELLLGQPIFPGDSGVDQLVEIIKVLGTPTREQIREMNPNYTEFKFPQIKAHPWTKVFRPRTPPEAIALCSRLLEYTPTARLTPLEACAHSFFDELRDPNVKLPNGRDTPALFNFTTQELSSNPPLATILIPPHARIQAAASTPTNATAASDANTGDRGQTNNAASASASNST

| Compound | IC50 [1] [µM] | IC50 [2] [µM] |
| --- | --- | --- |
| c1cnc2cc(-c3cn(C4C5CC6CC(C5)CC4C6)nn3)ccc2n1 (stereo unspecified) | 9.7 |  |
| Fc1ccc(-n2cc(-c3ccc4nccnc4c3)nn2)cc1 | 12.4 |  |
| c1ccc(-c2cnnn2C2C3CC4CC(C3)CC2C4)nc1 (stereo unspecified) | 10.2 |  |
| c1cnc2cc(-c3cn(CCN4CCOCC4)nn3)ccc2n1 | 10.9 |  |
| Cc1ccccc1-n1cc(-c2ccccn2)nn1 | 9.3 | 0.49 |
| Fc1ccc(-n2cc(-c3ccccn3)nn2)cc1 | 6.7 |  |

The next lines start with the values.

| IC50 [1] [µM] | IC50 [2] [µM] | Compound |
| --- | --- | --- |
| 1.4 |  | Fc1ccc(-n2nncc2-c2ccncc2)cc1 |
| 2.3 |  | Cc1ccc(-n2nncc2-c2ccncc2)cc1 |
| 3.1 | 2.8 | c1cnc2cc(-c3cnnn3C3C4CC5CC(C4)CC3C5)ccc2n1 (stereo unspecified) |
| 6.2 | 6.3 | Cc1ccccc1-n1nncc1-c1ccncc1 |
| 1.1 | > 30 | Cc1ccc(-n2cc(-c3ccccn3)nn2)cc1 |
| 6.3 |  | Clc1ccc(-n2cc(-c3ccccn3)nn2)cc1 |
| 6.3 | 9.5 | c1ccc(Cn2cc(-c3ccc4nccnc4c3)nn2)cc1 |
| 4.8 | 2.6 | c1cc(-c2cnnn2C2C3CC4CC(C3)CC2C4)ccn1 (stereo unspecified) |
| 6.6 |  | Cc1ccc(-n2cc(-c3ccncc3)nn2)cc1 |
